Read-outs that look alike come from different tables or passages of the source.
Details: for Purity (area %): HPLC; for degradation: after 36 hours exposure to sunlight; for appearance after exposure to sunlight: exposed to sunlight
[1] = Initial, before exposure to sunlight

Protocol: 100 mg each of the above-mentioned 6 salts was respectively placed in 6 test tubes to prepare a total of 36 samples (6 samples per salt), and they were exposed to sunlight for 36 hours. Then, samples of each salt were taken at 6 hour-intervals and stored in a cool and dark place. After 36 hours, each sample was diluted with a 20 mM ammonium acetate buffer solution (pH=5.0)—acetonitrile mixture (1:1, v/v) and analyzed by HPLC under the following conditions: • Column: Symmetry C8 (4.6 mm×100 mm, 3.5 μm, Water, US) • Eluent: 1 l of a solution of 7 g perchloric acid monohydrate and 1.74 g potassium monohydrogen phosphate in purified water, which adjusted to pH 2.8 by the addition of phosphoric acid.

Structure (SMILES)	Purity (area %) [1]	degradation	Purity (area %) (exposed to sunlight 6 hours)	Purity (area %) (exposed to sunlight 12 hours)	Purity (area %) (exposed to sunlight 18 hours)	Purity (area %) (exposed to sunlight 24 hours)	Purity (area %) (exposed to sunlight 30 hours)	Purity (area %) (exposed to sunlight 36 hours)	appearance after exposure to sunlight
CCOC(=O)C1=C(COCCN)NC(C)=C(C(=O)OC)C1c1ccccc1Cl (stereo not drawn) [Nicotinate dehydrate, (s)-(−)-amlodipine nicotinate dihyrate]	99.8 area %	~2%	99.6 area %	99.0 area %	98.3 area %	98.3 area %	98.2 area %	97.9 area %	–
CC1(C)[C@H]2CC[C@]1(CS(=O)(=O)O)C(=O)C2.CCOC(=O)C1=C(COCCN)NC(C)=C(C(=O)OC)[C@@H]1c1ccccc1Cl [(R)-Camsylate of Ref. Ex. 1, S-(−)-amlodipine (R)-camsylate]	99.8 area %	about 5%	99.9 area %	99.7 area %	99.0 area %	98.1 area %	96.2 area %	94.8 area %	color change of their surface from off-white to brown, and they becomes partially melted
CC1(C)[C@@H]2CC[C@@]1(CS(=O)(=O)O)C(=O)C2.CCOC(=O)C1=C(COCCN)NC(C)=C(C(=O)OC)[C@@H]1c1ccccc1Cl [(1S)-(+)-10-Camsylate anhydride of Ex. 2, S-(−)-amlodipine (1S)-(+)-10-camsylate anhydride]	99.9 area %	–	99.9 area %	99.9 area %	99.9 area %	99.8 area %	99.7 area %	99.7 area %	–
CCOC(=O)C1=C(COCCN)NC(C)=C(C(=O)OC)[C@@H]1c1ccccc1Cl.O=S(=O)(O)c1ccccc1 [Besylate, (S)-(−)-amlodipine besylate]	99.8 area %	about 7%	99.9 area %	99.4 area %	98.5 area %	96.4 area %	94.4 area %	93.4 area %	color change of their surface from off-white to brown, and they becomes partially melted
CC1(C)C2CCC1(CS(=O)(=O)O)C(=O)C2.CCOC(=O)C1=C(COCCN)NC(C)=C(C(=O)OC)[C@@H]1c1ccccc1Cl.O (racemic) [(±)-10-Camsylate hydrate of Ex. 3, S-(−)-amlodipine (±)-10-camsylate hydrate]	99.8 area %	–	99.9 area %	99.8 area %	99.7 area %	99.6 area %	99.4 area %	99.3 area %	–
CC1(C)[C@@H]2CC[C@@]1(CS(=O)(=O)O)C(=O)C2.CCOC(=O)C1=C(COCCN)NC(C)=C(C(=O)OC)[C@@H]1c1ccccc1Cl.O [(1S)-(+)-10-Camsylate hydrate of Ex. 1, S-(−)-amlodipine (1S)-(+)-10-camsylate hydrate]	99.9 area %	–	99.9 area %	99.9 area %	99.8 area %	99.8 area %	99.7 area %	99.7 area %	–
